Read-outs that look alike come from different tables or passages of the source.
Legend:
[1] = tested on: normal rat intestinal epithelial cells (IEC6); test: Protection of normal intestinal epithelial cells by aFGF/bFGF, BrdU incorporation; format: cell-based; details: drug 24 hours
Description: These cells were derived from normal, noncancerous intestinal epithelium. […] Drug effect was measured as the reduction of bromodeoxyuridine incorporation in treated cells relative to untreated controls.

[2] = tested on: Human prostate PC3 tumor cells; test: Intracellular drug accumulation with or without CM or r-bFGF; details: unchanged with or without CM or r-bFGF; 1 nM paclitaxel, 50 nM doxorubicin, 500 nM 5-fluorouracil; 4 hours
[3] = tested on: subcutaneous PC3 tumors; details: suramin 10 mg/kg, doxorubicin 5 mg/kg, twice weekly for 3 weeks
Description: Briefly, PC3 cells (5×10^6 cells) were injected subcutaneously.

[4] = tested on: human prostate PC3-LN tumor cells; test: cells; format: cell-based; details: read-out: IC50 in the monolayer cultures of PC3-LN cells
[5] = tested on: rat MAT-LyLu tumor cells; test: Intracellular drug accumulation with or without CM or r-bFGF; details: unchanged with or without CM or r-bFGF; 10 nM paclitaxel, 100 nM doxorubicin, 500 nM 5-fluorouracil
[6] = tested on: rat MAT-LyLu tumor cells; test: Reversal of CM-induced resistance by FGF antibodies and suramin, BrdU incorporation; format: cell-based; details: Rattus norvegicus, read-out: IC50 in the presence of 1.6 micromolar suramin; CM of lung metastases histocultures; unchanged in the absence or presence of 5 microgram/ml anti-bFGF antibody
Description: The source of CM was lung histocultures for the aFGF experiment, and early monolayer lung cultures for the bFGF experiment. The study used four controls: no CM (left solid curves, open circles); addition of 5 μg/ml aFGF or bFGF antibody but no CM (inverted filled triangle, overlaps with the left control curve); addition of CM but no antibody (right solid curves, open square); addition of CM plus a nonspecific antibody, IgG (5 μg/ml, filled diamond, overlaps with the right CM-control curve). Dotted curves, from right to left, addition of aFGF or bFGF antibody concentrations of 0.05 μg/ml (filled circle); 0.1 μg/ml (filled square); 1 or 0.5 μg/ml (filled triangle); and 5 μg/ml (open inverted triangle). […] Similar results were also found for human PC3 prostate tumor cells.
The first study used specific inhibitors of extracellular aFGF and bFGF, i.e., monoclonal antibodies (FIG. 2A). […] In the presence of the active CM, the bFGF antibody produced a concentration-dependent reversal of the CM-induced chemoresistance, with complete reversal by 5 microgram/ml antibody, whereas a nonspecific antibody (i.e., non-immune rabbit IgG) had no effect. For aFGF, the antibody treatment partially reversed the CM-induced resistance; the maximum reversal was about 60% that was obtained with 1 microgram/ml antibody with no significant additional reversal at a 5-fold higher concentration. The second study evaluated the effect of removing aFGF and/or bFGF from the active CM by immunoprecipitation. Removal of bFGF abolished the resistance, whereas removal of aFGF only partially reversed the CM effect. These two studies indicate that both aFGF and bFGF were involved in the resistance, but had different roles.
This study was performed using the rat MAT-LyLu tumor cells as the model tumor cells and using doxorubicin and paclitaxel as the model anticancer agents. The CM used to induce resistance was collected from histocultures of lung metastases (see Table 1). Five microgram/ml anti-bFGF antibody was added.

[7] = tested on: rat primary tumor cells, monolayers; test: Drug effect in monolayers of rat primary tumor cells (inhibition of bromodeoxyuridine incorporation); format: cell-based; details: 96 h, read-out: Concentration producing 50% inhibition
[8] = tested on: rat lymph node metastases, histocultures; test: Drug effect in histocultures of rat lymph node metastases (inhibition of 3H-thymidine incorporation); format: cell-based
[9] = tested on: rat lung metastasis cells, monolayers; test: Drug effect in monolayers of rat lung metastasis cells (inhibition of bromodeoxyuridine incorporation); format: cell-based; details: 96 h, read-out: Concentration producing 50% inhibition
[10] = tested on: human PC3-LN lung metastases
Description: Animal care was in accordance with the guidelines at the Ohio State University. Several human tumor models were used, including (a) lung metastases derived from intravenous injection of human PC3-LN tumor cells, (b) lung tumors derived from direct injection of human PC3 cells in lungs, and (c) subcutaneously implanted PC3 tumors. Four studies were performed. In all studies, drug treatment was administered intravenously via a tail vein, after the tumor was established. The first and second studies used the intravenous PC3-LN lung metastasis model. Briefly, human PC3-LN cells ([…] in 0.1 ml physiologic saline) were injected intravenously, via a tail vein, into immunodeficient mice. […] Treatment was given twice weekly for three weeks. […] Three days after completion of drug treatments, animals were euthanized and their lungs removed, fixed in Bouin's solution to visualize tumor nodules, and then processed for histologic evaluation. […] The lung surface area (counted as number of pixel) occupied by the tumor was calculated as a fraction of the total lung area, using Adobe PhotoShop. The number of tumor cells in residual tumors and the fraction of apoptotic cells in each tumor were also determined microscopically. Because apoptotic cells disappear over time, a second measure of the extent of apoptosis was the density of non-apoptotic cells in the residual tumors. This was determined by counting the number of non-apoptotic tumor cells in randomly selected microscopic fields at 400× magnification. […] In the case of combination therapy where fewer than 5 tumor nodules remained per animal, all residual cells (between 20 to 600 cells per animal) were counted.

[11] = tested on: human PC3 lung tumors; test: Lung tumors established by direct injection of PC3 cells into the lungs of immunodeficient mice; format: in vivo; details: doxorubicin three doses of 10 mg/kg, suramin three doses of 20 mg/kg, day 12
Description: Animal care was in accordance with the guidelines at the Ohio State University. Several human tumor models were used, including (a) lung metastases derived from intravenous injection of human PC3-LN tumor cells, (b) lung tumors derived from direct injection of human PC3 cells in lungs, and (c) subcutaneously implanted PC3 tumors. Four studies were performed. In all studies, drug treatment was administered intravenously via a tail vein, after the tumor was established. The first and second studies used the intravenous PC3-LN lung metastasis model. Briefly, human PC3-LN cells ([…] in 0.1 ml physiologic saline) were injected intravenously, via a tail vein, into immunodeficient mice. […] Treatment was given twice weekly for three weeks. […] The lung surface area (counted as number of pixel) occupied by the tumor was calculated as a fraction of the total lung area, using Adobe PhotoShop. The number of tumor cells in residual tumors and the fraction of apoptotic cells in each tumor were also determined microscopically. […] This was determined by counting the number of non-apoptotic tumor cells in randomly selected microscopic fields at 400× magnification. […] In the case of combination therapy where fewer than 5 tumor nodules remained per animal, all residual cells (between 20 to 600 cells per animal) were counted.

[12] = tested on: Human prostate PC3 tumor cells; test: aFGF/bFGF-induced resistance and reversal by suramin, sulforhodamine B assay; format: cell-based; details: for Resistance, Folds, aFGF 0.3 ng/ml + bFGF 1 ng/ml / Resistance, Folds, aFGF 1 ng/ml + bFGF 3 ng/ml: no suramin, relative to control
Description: The experimental conditions are described briefly below. […] Cell number was measured using the sulforhodamine B assay which measures the total protein concentration. […] The FGF-induced resistance was dependent on the FGF concentrations, with a higher resistance at higher FGF concentrations.

[13] = tested on: rat lung metastases, histocultures; test: Drug effect in histocultures of rat lung metastases (inhibition of 3H-thymidine incorporation); format: cell-based
[14] = IEC-6, absence of aFGF and bFGF
[15] = IEC-6, pretreated with 1 ng/ml aFGF and 3 ng/ml bFGF for 96 hours
[16] = doxorubicin study: suramin 10 mg/kg, doxorubicin 5 mg/kg, intravenous twice weekly for three weeks
[17] = suramin 10 mg/kg, doxorubicin 5 mg/kg, intravenous twice weekly for three weeks
[18] = Homo sapiens, read-out: IC50, Control (drug treatment only, without FGF treatment), No suramin, drug 96 hours
[19] = Homo sapiens, read-out: IC50, aFGF 0.3 ng/ml + bFGF 1 ng/ml, No suramin, FGF pretreatment 96 hours, drug 96 hours
[20] = Homo sapiens, read-out: IC50, aFGF 1 ng/ml + bFGF 3 ng/ml, No suramin, FGF pretreatment 96 hours, drug 96 hours
[21] = read-out: IC50, Control (without FGF treatment), Suramin, 15 μM, drug 96 hours with 15 μM suramin
[22] = read-out: IC50, aFGF 0.3 ng/ml + bFGF 1 ng/ml, With suramin, FGF pretreatment 96 hours, drug 96 hours with 15 micromolar suramin
[23] = read-out: IC50, aFGF 1 ng/ml + bFGF 3 ng/ml, With suramin, FGF pretreatment 96 hours, drug 96 hours with 15 micromolar suramin
[24] = 24 h, read-out: Concentration producing 50% inhibition (data shown are the concentrations that produced 30% inhibition)
[25] = paclitaxel study: suramin 10 mg/kg, paclitaxel 15 mg/kg, intravenous twice weekly for three weeks

| Compound | IC50 [1, 14] [µM] | IC50 [1, 15] [µM] | IC50 [4] [µM] | IC50 [6] [µM] | IC50 ([7]; Monolayers (passage 0)) [µM] | IC50 ([7]; Monolayers (passage 1)) [µM] | IC50 ([7]; Monolayers (passage 2)) [µM] | IC50 ([7]; Monolayers (passage 3)) [µM] | IC50 ([9]; Monolayers (passage 0)) [µM] | IC50 ([9]; Monolayers (passage 1)) [µM] | IC50 ([9]; Monolayers (passage 2)) [µM] | IC50 ([9]; Monolayers (passage 3)) [µM] | IC50 [12, 18] [µM] | IC50 [12, 19] [µM] | IC50 [12, 20] [µM] | Resistance, Folds, aFGF 0.3 ng/ml + bFGF 1 ng/ml [12] [Folds] | Resistance, Folds, aFGF 1 ng/ml + bFGF 3 ng/ml [12] [Folds] | IC50 [12, 21] [µM] | IC50 [12, 22] [µM] | IC50 [12, 23] [µM] | other results |
| --- | --- | --- | --- | --- | --- | --- | --- | --- | --- | --- | --- | --- | --- | --- | --- | --- | --- | --- | --- | --- | --- |
| COc1cccc2c1C(=O)c1c(O)c3c(c(O)c1C2=O)C[C@@](O)(C(=O)CO)C[C@@H]3O[C@H]1C[C@H](N)[C@H](O)[C@H](C)O1 [Doxorubicin] | 0.292 | 0.544 | 0.017 | 0.013 | 0.008 ± 0.0005 | 0.0086 ± 0.0005 | 0.008 ± 0.0004 | 0.008 ± 0.0002 | 0.077 ± 0.0029 | 0.0317 ± 0.0089 | 0.0166 ± 0.001 | 0.008 ± 0.0005 | 0.0278 | 0.145 | 0.281 | 5.23 | 10.11 | 0.0359 | 0.0298 | 0.0279 | plateau intracellular concentration [2]: 40 pmol/10^6 cells; effect on tumor growth [3]: reduced the tumor growth but did not cause tumor regression; plateau intracellular concentration [5]: 80 pmol/10^6 cells; IC50 ([8]; Histocultures, Lymph node, 96 hours, read-out: Concentration producing 50% inhibition): 0.165 ± 0.066 µM; reduction of tumor size ([10]; doxorubicin 5 mg/kg alone): ~80%; % Apoptotic cells per tumor [10, 16]: 29 ± 16 %; Density of nonapoptotic cells in residual tumors, cells/field [10, 16]: 77 ± 17 cells/field; % Lung surface area occupied by tumor [10, 17]: 2 ± 1 %; % Tumor-free animals [10, 17]: 0%; tumor-free animals [11]: 25% |
| O=c1[nH]cc(F)c(=O)[nH]1 [5-Fluorouracil] |  |  |  |  | 0.79 ± 0.04 | 0.85 ± 0.03 | 0.79 ± 0.06 | 0.78 ± 0.04 | 2.84 ± 0.24 | 1.52 ± 0.08 | 1.2 ± 0.04 | 0.81 ± 0.04 | 2.21 | 5.05 | 12.6 | 2.29 | 5.71 | 2.39 | 2.16 | 2.14 | IC50 ([13]; Histocultures, Lung, 96 hours, read-out: Concentration producing 50% inhibition): 122 ± 25 µM |
| CC(=O)O[C@H]1C(=O)[C@@]2(C)[C@H]([C@H](OC(=O)c3ccccc3)[C@]3(O)C[C@H](OC(=O)[C@H](O)[C@@H](NC(=O)c4ccccc4)c4ccccc4)C(C)=C1C3(C)C)[C@]1(OC(C)=O)CO[C@@H]1C[C@@H]2O [Paclitaxel] | 0.491 | 1.45 | 0.008 | 0.014 | 0.0107 ± 0.0005 | 0.0105 ± 0.0005 | 0.0103 ± 0.0008 | 0.01 ± 0.0002 | 0.0924 ± 0.0069 | 0.0281 ± 0.0007 | 0.0215 ± 0.0037 | 0.0114 ± 0.0007 | 0.00216 | 0.00653 | 0.0121 | 3.02 | 5.59 | 0.00213 | 0.00188 | 0.00201 | IC30 [13, 24]: > 1.8 µM; IC30 (concentration producing 30% inhibition) [8, 24]: > 0.227 µM; increase of the fraction of apoptotic cells ([10]; paclitaxel 15 mg/kg alone): 13 fold; reduction of the density of nonapoptotic cells ([10]; paclitaxel 15 mg/kg alone): ~70%; % Apoptotic cells per tumor [10, 25]: 53 ± 24 %; Density of nonapoptotic cells in residual tumors, cells/field [10, 25]: 49 ± 35 cells/field |

Reference: patent US20040010001A1, “Methods and compositions for modulating cell proliferation and cell death” (priority 1999, published 2004)
